For one molecule, pKa results are on record in patent US11077050B2, “Formulation for parenteral administration” (MERCK SHARP & DOHME CORP., priority 2017, dated 2021).

A short description of the series: pKa of doravirine. Type of series: physicochemical.

SMILES strings stand for the structures.

Molecule `Cn1c(Cn2ccc(C(F)(F)F)c(Oc3cc(Cl)cc(C#N)c3)c2=O)n[nH]c1=O` [Doravirine] displayed a pKa of 9.47.
